Common to all, as to type: in vivo
The test system of one assay is Phyllotreta striolata. Briefly: Test of Efficacy on Phyllotreta striolata (spray on Qing geng cai seedlings). Conditions: 168 h, sprayed to Qing geng cai seedlings, adults, after 7 days, read-out: insecticidal rate. The protocol:
(§1) 5 parts of the heteroaryl azole compound of the present invention, 93.6 parts of dimethylformamide, and 1.4 parts of polyoxyethylene alkyl aryl ether were mixed and dissolved to prepare emulsion (I) containing 5% of the active ingredient.
(§2) An insecticidal rate was calculated according to the following expression: Insecticidal rate (%)=(The number of dead insects/The number of tested insects)×100
The emulsion (I) was diluted with water such that the concentration of the compound of the present invention was 125 ppm to prepare a test chemical. The test chemical was sprayed to Qing geng cai seedlings (at the seventh true leaf stage) planted in 10-cm pots. The Qing geng cai seedlings were dried in air and then placed in a plastic cup. Ten Phyllotreta striolata adults were released thereto. The plastic cup was stored in a thermostat chamber having a temperature of 25° C. and a humidity of 65%. Life and death were determined after 7 days from the release of the insects, and the insecticidal rate was calculated. The test was conducted in duplicate.

Another assay has as its system Plutella xylostella. Briefly: Test of Efficacy on Plutella xylostella (cabbage leaf dip). Conditions: foliar, 72 h, cabbage leaves dipped 30 seconds, second instar larvae, after 3 days, read-out: insecticidal rate. The protocol:
5 parts of the heteroaryl azole compound of the present invention, 93.6 parts of dimethylformamide, and 1.4 parts of polyoxyethylene alkyl aryl ether were mixed and dissolved to prepare emulsion (I) containing 5% of the active ingredient. An insecticidal rate was calculated according to the following expression: Insecticidal rate (%)=(The number of dead insects/The number of tested insects)×100 The emulsion (I) was diluted with water such that the concentration of the compound of the present invention was 125 ppm. Cabbage leaves were dipped in the dilution for 30 seconds. The resulting cabbage leaves were placed in a petri dish. Five second instar larvae of Plutella xylostella were released thereto. The petri dish was placed in a thermostat chamber having a temperature of 25° C. and a humidity of 60%. Life and death were determined after 3 days from the release of the insects, and the insecticidal rate was calculated. The test was conducted in duplicate.

The subject of a further assay is Aphis craccivora. Briefly: Test of Efficacy on Aphis craccivora (spray on black-eyed peas). To be noted: 96 h, 125 ppm, sprayed to black-eyed peas, nymphs, after 4 days, read-out: insecticidal rate. As to the method: as §1, §2
Seedlings of black-eyed peas were raised in 10-cm pots. Aphis craccivora nymphs were inoculated onto primary leaves. The emulsion (I) was diluted with water such that the concentration of the compound of the present invention was 125 ppm. The dilution was sprayed to the black-eyed peas parasitized by the Aphis craccivora nymphs. The black-eyed peas were placed in a thermostat chamber having a temperature of 25° C. and a humidity of 60%. Life and death of Aphis craccivora were determined after 4 days from the spraying, and the insecticidal rate was calculated. The test was conducted in duplicate.

A further assay has as its system Mythimna separata. Briefly: Test of Efficacy on Mythimna separata (test feed). To be noted: 1 μl of emulsion (I) (5% active ingredient) in 0.8 g artificial feed; second instar larvae; 25° C.; fifth day. The protocol:
5 parts of the heteroaryl azole compound of the present invention, 93.6 parts of dimethylformamide, and 1.4 parts of polyoxyethylene alkyl aryl ether were mixed and dissolved to prepare emulsion (I) containing 5% of the active ingredient. For a control, 98.5 parts of dimethylformamide and 1.5 parts of polyoxyethylene alkyl aryl ether were mixed and dissolved to prepare emulsion (II). An insecticidal rate was calculated according to the following expression: Insecticidal rate (%)=(The number of dead insects/The number of tested insects)×100 0.8 g of commercially available artificial feed (Insecta LFS, manufactured by Nosan Corp.) and 1 μl of the emulsion (I) were well mixed to obtain test feed. A plastic test container (capacity: 1.4 ml) was packed with 0.2 g of the test feed per treatment plot. Then, two second instar larvae of Mythimna separata were inoculated to each treatment plot. A plastic lid was put on the test container so as to prevent escape of the second instar larvae of Mythimna separata. The container was placed in a thermostat chamber of 25° C. On the fifth day, the insecticidal rate and the food intake were examined. The test was conducted in duplicate. The insecticidal rate and the food intake of a control plot were examined in the same way as in Test Example 1 except that the emulsion (I) was changed to the emulsion (II).

Here are results for eleven compounds from patent US12180178B2, “Heteroaryl azole compound and pest control agent” (NIPPON SODA CO., LTD., priority 2018, dated 2024).

On to `CCS(=O)(=O)c1cc(C2CC2)cnc1-c1ncn(-c2ccc(OC(F)(F)F)cc2)n1` [d-7], for which the pest or weed control at 125 ppm in the assay with Phyllotreta striolata and in the assay with Plutella xylostella was ≥ 80% in each case.
For the compound `CCS(=O)(=O)c1cc(C2CC2)cnc1-c1cn(-c2ccc(OC(F)(F)F)cc2)cn1` [d-19, 5-cyclopropyl-3-(ethylsulfonyl)-2-(1-(4-(trifluoromethoxy)phenyl)-1H-imidazol-4-yl)pyridine], the pest or weed control at 125 ppm with Phyllotreta striolata, in the assay on Aphis craccivora and in the assay with Plutella xylostella was ≥ 80% throughout. In addition, the “insecticidal rate or food intake as compared with the control plot” value in the assay with Mythimna separata is “insecticidal rate of 100% for Mythimna separata or a food intake of 10% or less as compared with the control plot”.
Regarding `CCS(=O)(=O)c1cc(-c2ccccn2)cnc1-c1ncn(-c2ccc(OC(F)(F)F)cc2)n1` [d-6], the pest or weed control at 125 ppm in the assay on Phyllotreta striolata, with Aphis craccivora and in the assay on Plutella xylostella was ≥ 80% each time. For the same compound, the “insecticidal rate or food intake as compared with the control plot” value with Mythimna separata is listed as “insecticidal rate of 100% for Mythimna separata or a food intake of 10% or less as compared with the control plot”.
For `CCS(=O)(=O)c1cc(-c2ncccn2)cnc1-c1ncn(/C=C(\F)C(F)(F)C(F)(F)F)c1C` [c-8], the pest or weed control at 125 ppm in the assay on Phyllotreta striolata and with Plutella xylostella was ≥ 80% in each case.
Consider `CCS(=O)(=O)c1cc(-c2ncccn2)cnc1-c1ncn(CC(F)(F)C(F)(F)C(F)(F)F)c1C` [c-5], for which the pest or weed control at 125 ppm in the assay on Phyllotreta striolata, in the assay on Aphis craccivora and in the assay on Plutella xylostella was ≥ 80% throughout. Besides, in the assay on Mythimna separata, the “insecticidal rate or food intake as compared with the control plot” value is “insecticidal rate of 100% for Mythimna separata or a food intake of 10% or less as compared with the control plot”.
As to `CCS(=O)(=O)c1cc(-c2ncccn2)cnc1-c1ncn(-c2ccc(OC(F)(F)F)cc2)n1` [d-1], the pest or weed control at 125 ppm with Phyllotreta striolata and in the assay with Plutella xylostella was ≥ 80% in each case.
Regarding `CCS(=O)(=O)c1cc(C2CC2)c[n+]([O-])c1-c1cn(-c2ccc(OC(F)(F)F)cc2)cn1` [d-22], the pest or weed control at 125 ppm in the assay on Phyllotreta striolata, in the assay on Aphis craccivora and in the assay with Plutella xylostella was ≥ 80% in each case.
For `CCS(=O)(=O)c1cc(-c2ncccn2)cnc1-c1ncn(/C=C(\F)C(F)(F)I)c1C` [c-9], the pest or weed control at 125 ppm in the assay with Phyllotreta striolata and in the assay on Plutella xylostella was ≥ 80% each time.
For the compound `CCS(=O)(=O)c1cc(C2CC2)cnc1-c1ncn(-c2ccc(C(F)(F)F)cn2)n1` [d-4, 5-cyclopropyl-3-(ethylsulfonyl)-2-(1-(5-(trifluoromethyl)pyridin-2-yl)-1H-1,2,4-triazol-3-yl)pyridine], the pest or weed control at 125 ppm in the assay with Aphis craccivora and in the assay on Plutella xylostella was ≥ 80% in each case. The “insecticidal rate or food intake as compared with the control plot” value in the assay on Mythimna separata is “insecticidal rate of 100% for Mythimna separata or a food intake of 10% or less as compared with the control plot”.
As for `CCS(=O)(=O)c1ccc(-n2cncn2)nc1-c1cn(-c2ccc(OC(F)(F)F)cc2)cn1` [d-24], the pest or weed control at 125 ppm in the assay on Aphis craccivora and in the assay with Plutella xylostella was ≥ 80% each time. The “insecticidal rate or food intake as compared with the control plot” value in the assay on Mythimna separata is reported as “insecticidal rate of 100% for Mythimna separata or a food intake of 10% or less as compared with the control plot”.
Regarding `CCS(=O)(=O)c1cc(-c2ccccn2)cnc1-c1cn(-c2ccc(OC(F)(F)F)cc2)cn1` [d-20], the pest or weed control at 125 ppm in the assay on Phyllotreta striolata, with Aphis craccivora and with Plutella xylostella was ≥ 80% each time. The “insecticidal rate or food intake as compared with the control plot” value with Mythimna separata is reported as “insecticidal rate of 100% for Mythimna separata or a food intake of 10% or less as compared with the control plot”.
